Experimental data from the NIST ThermoML archive (doi:10.1016/j.fluid.2007.06.017).
± gives the expanded uncertainty stated by the source.

Settings: Crystal; DTA

CCCCCCCCCCCCCC[P+](CCCCCC)(CCCCCC)CCCCCC.O=S(=O)([N-]S(=O)(=O)C(F)(F)F)C(F)(F)F showed a Normal melting temperature of 33.00 ± 1 °C.
